Legend:
Experiment in all cases: relative viability (nuclei count vs DMSO), 5 days (fraction); higher = more cells survive
[1] = test system: NCI-H647
Method in brief: (§1)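 Dosing by pin tool came one day after lung cancer cell lines were seeded in 1536-well plates, using either one drug or a fixed anchor-drug dose plus five library-drug doses (not always all listed) in √10 steps. After 5 days, nuclei were counted on 4× images. Relative viability is treated-well nuclei count divided by vehicle-well nuclei count, and values are medians of duplicate plates.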

[2] = test system: RERF-LC-KJ
Method in brief: as §1

[3] = test system: NCI-H596
Method in brief: as §1

[4] = test system: LCLC-103H
Method in brief: as §1

[5] = test system: COR-L23
Method in brief: as §1

[6] = test system: HOP-62
Method in brief: as §1

[7] = test system: A-427
Method in brief: as §1

[8] = test system: NCI-H1975
Method in brief: as §1

[9] = test system: NCI-H2085
Method in brief: as §1

[10] = test system: NCI-H1563
Method in brief: as §1

[11] = test system: LXF-289
Method in brief: as §1

[12] = test system: COR-L 105
Method in brief: as §1

[13] = test system: NCI-H1395
Method in brief: as §1

[14] = test system: NCI-H2087
Method in brief: as §1

[15] = test system: NCI-H1651
Method in brief: as §1

[16] = test system: NCI-H2023
Method in brief: as §1

[17] = test system: NCI-H3122
Method in brief: as §1

[18] = test system: NCI-H2170
Method in brief: as §1

[19] = test system: CAL-12T
Method in brief: as §1

[20] = test system: NCI-H650
Method in brief: as §1

[21] = test system: SK-MES-1
Method in brief: as §1

COCC1(CO)C(=O)C2CCN1CC2 (centres undefined) [PRIMA-1MET] + Cc1nc(NC(=O)N2CCC[C@H]2C(N)=O)sc1-c1ccnc(C(C)(C)C(F)(F)F)c1 [Alpelisib] (partner 2 µM)
relative viability ([1]; first compound 0.2 µM): 1.33 | relative viability ([1]; first compound 0.6325 µM): 1.04 | relative viability ([1]; first compound 2 µM): 1.13 | relative viability ([1]; first compound 6.325 µM): 1.09 | relative viability ([1]; first compound 20 µM): 0.892 | relative viability ([2]; first compound 0.2 µM): 0.797 | relative viability ([2]; first compound 0.6325 µM): 0.835 | relative viability ([2]; first compound 2 µM): 0.715 | relative viability ([2]; first compound 6.325 µM): 1.01 | relative viability ([2]; first compound 20 µM): 0.75 | relative viability ([3]; first compound 0.2 µM): 0.539 | relative viability ([3]; first compound 0.6325 µM): 0.446 | relative viability ([3]; first compound 2 µM): 0.586 | relative viability ([3]; first compound 6.325 µM): 0.673 | relative viability ([3]; first compound 20 µM): 0.469 | relative viability ([4]; first compound 0.2 µM): 1.1 | relative viability ([4]; first compound 0.6325 µM): 0.966 | relative viability ([4]; first compound 2 µM): 0.793 | relative viability ([4]; first compound 6.325 µM): 1.09 | relative viability ([4]; first compound 20 µM): 0.935 | relative viability ([5]; first compound 0.2 µM): 0.783 | relative viability ([5]; first compound 0.6325 µM): 0.699 | relative viability ([5]; first compound 2 µM): 0.869 | relative viability ([5]; first compound 6.325 µM): 0.726 | relative viability ([5]; first compound 20 µM): 0.0226 | relative viability ([6]; first compound 0.2 µM): 1.13 | relative viability ([6]; first compound 0.6325 µM): 0.986 | relative viability ([6]; first compound 2 µM): 0.732 | relative viability ([6]; first compound 6.325 µM): 1.18 | relative viability ([6]; first compound 20 µM): 0.487 | relative viability ([7]; first compound 0.2 µM): 1.04 | relative viability ([7]; first compound 0.6325 µM): 1.05 | relative viability ([7]; first compound 2 µM): 0.9 | relative viability ([7]; first compound 6.325 µM): 1.04 | relative viability ([7]; first compound 20 µM): 1.07 | relative viability ([8]; first compound 0.2 µM): 0.822 | relative viability ([8]; first compound 0.6325 µM): 0.603 | relative viability ([8]; first compound 2 µM): 0.694 | relative viability ([8]; first compound 6.325 µM): 0.68 | relative viability ([8]; first compound 20 µM): 0.574 | relative viability ([9]; first compound 0.2 µM): 1.04 | relative viability ([9]; first compound 0.6325 µM): 0.941 | relative viability ([9]; first compound 2 µM): 0.962 | relative viability ([9]; first compound 6.325 µM): 0.554 | relative viability ([9]; first compound 20 µM): 0.35 | relative viability ([10]; first compound 0.2 µM): 0.889 | relative viability ([10]; first compound 0.6325 µM): 0.904 | relative viability ([10]; first compound 2 µM): 0.915 | relative viability ([10]; first compound 6.325 µM): 1.05 | relative viability ([10]; first compound 20 µM): 0.361 | relative viability ([11]; first compound 0.2 µM): 1.13 | relative viability ([11]; first compound 0.6325 µM): 0.973 | relative viability ([11]; first compound 2 µM): 1.08 | relative viability ([11]; first compound 6.325 µM): 1.04 | relative viability ([11]; first compound 20 µM): 0.939 | relative viability ([12]; first compound 0.2 µM): 1.11 | relative viability ([12]; first compound 0.6325 µM): 0.997 | relative viability ([12]; first compound 2 µM): 1.14 | relative viability ([12]; first compound 6.325 µM): 0.852 | relative viability ([12]; first compound 20 µM): 0.176 | relative viability ([13]; first compound 0.2 µM): 1.13 | relative viability ([13]; first compound 0.6325 µM): 0.737 | relative viability ([13]; first compound 2 µM): 0.977 | relative viability ([13]; first compound 6.325 µM): 0.993 | relative viability ([13]; first compound 20 µM): 0.635 | relative viability ([14]; first compound 0.2 µM): 1.23 | relative viability ([14]; first compound 0.6325 µM): 0.775 | relative viability ([14]; first compound 2 µM): 1.18 | relative viability ([14]; first compound 6.325 µM): 1.28 | relative viability ([14]; first compound 20 µM): 0.901 | relative viability ([15]; first compound 0.2 µM): 0.904 | relative viability ([15]; first compound 0.6325 µM): 0.981 | relative viability ([15]; first compound 2 µM): 1.17 | relative viability ([15]; first compound 6.325 µM): 0.962 | relative viability ([15]; first compound 20 µM): 0.837 | relative viability ([16]; first compound 0.2 µM): 0.7 | relative viability ([16]; first compound 0.6325 µM): 0.69 | relative viability ([16]; first compound 2 µM): 0.564 | relative viability ([16]; first compound 6.325 µM): 0.615 | relative viability ([16]; first compound 20 µM): 0.568 | relative viability ([17]; first compound 0.2 µM): 0.696 | relative viability ([17]; first compound 0.6325 µM): 0.683 | relative viability ([17]; first compound 2 µM): 0.844 | relative viability ([17]; first compound 6.325 µM): 0.628 | relative viability ([17]; first compound 20 µM): 0.684 | relative viability ([18]; first compound 0.2 µM): 0.889 | relative viability ([18]; first compound 0.6325 µM): 0.749 | relative viability ([18]; first compound 2 µM): 0.864 | relative viability ([18]; first compound 6.325 µM): 0.847 | relative viability ([18]; first compound 20 µM): 0.733 | relative viability ([19]; first compound 0.2 µM): 1.19 | relative viability ([19]; first compound 0.6325 µM): 1.29 | relative viability ([19]; first compound 2 µM): 1.08 | relative viability ([19]; first compound 6.325 µM): 1.42 | relative viability ([19]; first compound 20 µM): 0.264 | relative viability ([20]; first compound 0.2 µM): 1.38 | relative viability ([20]; first compound 2 µM): 1.08 | relative viability ([20]; first compound 6.325 µM): 1.02 | relative viability ([20]; first compound 20 µM): 0.099 | relative viability ([21]; first compound 0.2 µM): 0.885 | relative viability ([21]; first compound 0.6325 µM): 1.02 | relative viability ([21]; first compound 2 µM): 0.747 | relative viability ([21]; first compound 6.325 µM): 0.823 | relative viability ([21]; first compound 20 µM): 0.822

From the supplement of paper PMC10307832
